Measured values reported in patent US20230157952A1, “METHOD FOR IMPROVING THE STABILITY OF A PHARMACEUTICAL COMPOSITION COMPRISING A HIGH PENETRATION DRUG, AND THE PHARMACEUTICAL COMPOSITION OBTAINED THEREFROM” (Techfields Inc., priority 2020, published 2023).

Experiment: Effect of temperature (and pH) on the stability of the solution (purity)
Assay type: physicochemical

Purity (%) at day 21 (60° C.) (pH 1.02, 7% solution in water): 0%
Purity(%) at day 21 (5° C.) (pH 1.02, 7% solution in water): 93.1 ± 0.3%
Purity(%) at day 21 (25° C.) (pH 1.02, 7% solution in water): 70.7 ± 0.4%
Purity(%) at day 21 (40° C.) (pH 1.02, 7% solution in water): 18.5 ± 0.3%
Purity (%) at day 21 (60° C.) (pH 2.09, 7% solution in water): 0%
Purity(%) at day 21 (5° C.) (pH 2.09, 7% solution in water): 97.0 ± 0.4%
Purity(%) at day 21 (25° C.) (pH 2.09, 7% solution in water): 86.0 ± 0.4%
Purity(%) at day 21 (40° C.) (pH 2.09, 7% solution in water): 30.6 ± 0.4%
Purity (%) at day 21 (60° C.) (pH 3.01, 7% solution in water): 8.4 ± 0.3%
Purity(%) at day 21 (25° C.) (pH 3.01, 7% solution in water): 96.1 ± 0.3%
Purity(%) at day 21 (40° C.) (pH 3.01, 7% solution in water): 56.1 ± 0.4%
Purity (%) at day 21 (60° C.) (pH 3.68, 7% solution in water): 16.0 ± 0.4%
Purity(%) at day 21 (40° C.) (pH 3.68, 7% solution in water): 64.1 ± 0.5%
Purity (%) at day 21 (60° C.) (pH 4.07, 7% solution in water): 22.7 ± 0.4%
Purity(%) at day 21 (40° C.) (pH 4.07, 7% solution in water): 72.6 ± 0.4%
Purity (%) at day 21 (60° C.) (pH 4.35, 7% solution in water): 18.3 ± 0.3%
Purity(%) at day 21 (40° C.) (pH 4.35, 7% solution in water): 72.6 ± 0.5%
Purity (%) at day 21 (60° C.) (pH 4.67, 7% solution in water): 10.4 ± 0.5%
Purity(%) at day 21 (25° C.) (pH 4.67, 7% solution in water): 97.5 ± 0.4%
Purity(%) at day 21 (40° C.) (pH 4.67, 7% solution in water): 58.3 ± 0.4%
Purity (%) at day 21 (60° C.) (pH 4.96, 7% solution in water): 4.0 ± 0.3%
Purity(%) at day 21 (5° C.) (pH 4.96, 7% solution in water): 97.0 ± 0.4%
Purity(%) at day 21 (25° C.) (pH 4.96, 7% solution in water): 95.1 ± 0.4%
Purity(%) at day 21 (40° C.) (pH 4.96, 7% solution in water): 50.5 ± 0.5%
Purity (%) at day 21 (60° C.) (pH 5.98, 7% solution in water): 0%
Purity(%) at day 21 (5° C.) (pH 5.98, 7% solution in water): 95.8 ± 0.4%
Purity(%) at day 21 (25° C.) (pH 5.98, 7% solution in water): 90.2 ± 0.4%
Purity(%) at day 21 (40° C.) (pH 5.98, 7% solution in water): 29.9 ± 0.4%
Purity (%) at day 21 (60° C.) (pH 6.99, 7% solution in water): 0%
Purity(%) at day 21 (5° C.) (pH 6.99, 7% solution in water): 90.0 ± 0.5%
Purity(%) at day 21 (25° C.) (pH 6.99, 7% solution in water): 77.1 ± 0.4%
Purity(%) at day 21 (40° C.) (pH 6.99, 7% solution in water): 19.9 ± 0.4%
Purity (%) at day 21 (60° C.) (pH 8.01, 7% solution in water): 0%
Purity(%) at day 0 (pH 8.01, 7% solution in water): 97.6 ± 0.5%
Purity(%) at day 21 (5° C.) (pH 8.01, 7% solution in water): 81.1 ± 0.5%
Purity(%) at day 21 (25° C.) (pH 8.01, 7% solution in water): 52.3 ± 0.4%
Purity(%) at day 21 (40° C.) (pH 8.01, 7% solution in water): 0%
Structure (SMILES): CCN(CC)CCOC(=O)[C@H](C)c1ccc(CC(C)C)cc1.Cl
